The results in this text go back to ChEMBL document CHEMBL5653615 (J Biol Chem, 2013).

Test [1] has as its target CDK1/Cyclin A (Homo sapiens) (UniProt P06493+P20248). The experiment in a line: Inhibition of human CDK1/cyclin A at 18.6 nM by HotSpot assay relative to control. The format is protein-complex assay.
Test [2] concerns the target Serine/threonine-protein kinase WNK2 (Homo sapiens) (UniProt Q9Y3S1). The experiment in a line: Inhibition of human WNK2 at 18.6 nM by HotSpot assay relative to control.
Test [3] deals with T1, Mitogen-activated protein kinase kinase kinase 5 (Homo sapiens) (UniProt Q99683).
T1 sequence (whole entry): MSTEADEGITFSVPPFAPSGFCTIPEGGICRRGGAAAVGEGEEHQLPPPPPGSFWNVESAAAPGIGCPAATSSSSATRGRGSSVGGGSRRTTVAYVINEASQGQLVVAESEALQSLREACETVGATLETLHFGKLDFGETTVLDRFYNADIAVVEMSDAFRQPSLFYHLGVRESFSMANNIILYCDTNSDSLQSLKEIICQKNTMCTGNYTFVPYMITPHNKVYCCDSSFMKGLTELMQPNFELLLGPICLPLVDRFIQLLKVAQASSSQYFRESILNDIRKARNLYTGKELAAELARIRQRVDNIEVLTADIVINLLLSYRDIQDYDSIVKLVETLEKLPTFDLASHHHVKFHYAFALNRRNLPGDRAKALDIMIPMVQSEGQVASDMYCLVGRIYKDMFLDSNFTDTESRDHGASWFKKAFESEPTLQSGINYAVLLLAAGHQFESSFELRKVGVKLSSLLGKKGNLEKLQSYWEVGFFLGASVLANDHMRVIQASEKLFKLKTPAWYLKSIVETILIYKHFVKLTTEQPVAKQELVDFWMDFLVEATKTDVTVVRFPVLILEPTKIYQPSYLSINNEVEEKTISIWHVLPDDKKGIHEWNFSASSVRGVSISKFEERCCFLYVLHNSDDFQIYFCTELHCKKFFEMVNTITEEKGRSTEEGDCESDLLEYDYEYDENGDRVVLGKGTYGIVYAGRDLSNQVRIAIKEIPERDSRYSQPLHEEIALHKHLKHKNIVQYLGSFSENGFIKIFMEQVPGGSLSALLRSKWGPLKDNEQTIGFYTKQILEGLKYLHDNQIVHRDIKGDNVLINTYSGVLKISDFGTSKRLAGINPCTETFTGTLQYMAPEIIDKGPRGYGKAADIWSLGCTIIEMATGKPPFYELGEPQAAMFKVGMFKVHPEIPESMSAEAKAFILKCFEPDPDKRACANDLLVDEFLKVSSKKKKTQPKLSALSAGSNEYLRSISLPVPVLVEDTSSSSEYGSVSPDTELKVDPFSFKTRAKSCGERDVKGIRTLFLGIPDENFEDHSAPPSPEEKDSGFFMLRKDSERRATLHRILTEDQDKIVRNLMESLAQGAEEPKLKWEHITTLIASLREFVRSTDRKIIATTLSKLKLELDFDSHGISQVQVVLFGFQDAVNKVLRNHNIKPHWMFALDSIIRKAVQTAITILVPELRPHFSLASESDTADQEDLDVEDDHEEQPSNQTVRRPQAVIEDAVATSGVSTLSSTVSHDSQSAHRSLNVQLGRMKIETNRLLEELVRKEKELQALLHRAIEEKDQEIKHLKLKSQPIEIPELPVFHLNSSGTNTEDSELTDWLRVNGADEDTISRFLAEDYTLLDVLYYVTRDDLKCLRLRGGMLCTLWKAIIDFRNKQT
The experiment in a line: Inhibition of human ASK1 at 18.6 nM by HotSpot assay relative to control.

Test [4] concerns the target Death-associated protein kinase 3 (Homo sapiens) (UniProt O43293). The experiment in a line: Inhibition of human DAPK3 at 18.6 nM by HotSpot assay relative to control.
The target of test [5] is Mitogen-activated protein kinase kinase kinase 20 (Homo sapiens) (UniProt Q9NYL2). The experiment in a line: Inhibition of human MLTK at 18.6 nM by HotSpot assay relative to control.
Test [6] addresses Serine/threonine-protein kinase pim-2 (Homo sapiens) (UniProt Q9P1W9). As to the kind of experiment: Inhibition of human PIM2 at 18.6 nM by HotSpot assay relative to control.
Test [7] deals with Cyclin-dependent kinase 1/cyclin B1 (Homo sapiens) (UniProt P06493+P14635). As to the kind of experiment: Inhibition of human CDK1/cyclin B at 18.6 nM by HotSpot assay relative to control. The format is protein-complex assay.
The target in test [8] is Cyclin-dependent kinase 2/cyclin E1 (Homo sapiens) (UniProt P24864+P24941). The experiment in a line: Inhibition of human CDK2/cyclin E at 18.6 nM by HotSpot assay relative to control. It is filed as protein-complex assay.
Test [9] concerns the target Dual specificity protein kinase CLK3 (Homo sapiens) (UniProt P49761). As to the kind of experiment: Inhibition of human CLK3 at 18.6 nM by HotSpot assay relative to control.
The target in test [10] is Mitogen-activated protein kinase kinase kinase 8 (Homo sapiens) (UniProt P41279). The experiment in a line: Inhibition of human COT1 at 18.6 nM by HotSpot assay relative to control.
Test [11] deals with Dual specificity mitogen-activated protein kinase kinase 1 (Homo sapiens) (UniProt Q02750). The experiment in a line: Inhibition of human MEK1 at 18.6 nM by HotSpot assay relative to control.
Test [12] has as its target CDK6/cyclin D1 (Homo sapiens) (UniProt P24385+Q00534). The experiment in a line: Inhibition of human CDK6/cyclin D1 at 1.82 nM by HotSpot assay relative to control. The format is protein-complex assay.
The target in test [13] is cAMP-dependent protein kinase (PKA) (Homo sapiens) (UniProt P22694+P17612+P22612). As to the kind of experiment: Inhibition of human PKA at 1.82 nM by HotSpot assay relative to control. The format is protein assay.
The target in test [14] is Dual specificity mitogen-activated protein kinase kinase 2 (Homo sapiens) (UniProt P36507). As to the kind of experiment: Inhibition of human MEK2 at 1.82 nM by HotSpot assay relative to control.
The target in test [15] is Receptor-interacting serine/threonine-protein kinase 2 (Homo sapiens) (UniProt O43353). The experiment in a line: Inhibition of human RIPK2 at 1.82 nM by HotSpot assay relative to control.
Receptor-interacting serine/threonine-protein kinase 2 (Homo sapiens), sequence (O43353 whole entry): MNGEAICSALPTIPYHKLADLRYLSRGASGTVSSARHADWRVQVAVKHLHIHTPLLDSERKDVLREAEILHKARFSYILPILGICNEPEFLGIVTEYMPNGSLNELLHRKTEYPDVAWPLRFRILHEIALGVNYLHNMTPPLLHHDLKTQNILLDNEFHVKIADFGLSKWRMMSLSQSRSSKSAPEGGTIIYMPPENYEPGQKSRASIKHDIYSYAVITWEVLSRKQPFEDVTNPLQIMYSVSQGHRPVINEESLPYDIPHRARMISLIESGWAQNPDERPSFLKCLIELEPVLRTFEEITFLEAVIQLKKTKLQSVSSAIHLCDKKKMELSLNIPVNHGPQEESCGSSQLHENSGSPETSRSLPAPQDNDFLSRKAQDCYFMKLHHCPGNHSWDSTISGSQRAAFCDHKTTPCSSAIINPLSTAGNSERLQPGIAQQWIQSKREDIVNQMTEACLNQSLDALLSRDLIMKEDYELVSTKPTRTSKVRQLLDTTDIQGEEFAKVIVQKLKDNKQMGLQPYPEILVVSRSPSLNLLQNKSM

Dual specificity mitogen-activated protein kinase kinase 2 (Homo sapiens), sequence (P36507 whole entry): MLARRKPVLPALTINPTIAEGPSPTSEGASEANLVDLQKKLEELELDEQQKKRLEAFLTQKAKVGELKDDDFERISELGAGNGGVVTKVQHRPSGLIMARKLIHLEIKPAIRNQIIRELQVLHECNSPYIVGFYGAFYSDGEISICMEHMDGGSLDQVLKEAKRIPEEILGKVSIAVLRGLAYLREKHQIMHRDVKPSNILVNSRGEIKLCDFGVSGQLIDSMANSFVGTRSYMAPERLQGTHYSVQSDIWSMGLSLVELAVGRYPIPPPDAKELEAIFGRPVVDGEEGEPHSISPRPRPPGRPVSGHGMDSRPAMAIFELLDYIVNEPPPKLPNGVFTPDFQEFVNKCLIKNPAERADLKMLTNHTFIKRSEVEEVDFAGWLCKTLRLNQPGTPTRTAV
Serine/threonine-protein kinase WNK2 (Homo sapiens), sequence (Q9Y3S1 whole entry): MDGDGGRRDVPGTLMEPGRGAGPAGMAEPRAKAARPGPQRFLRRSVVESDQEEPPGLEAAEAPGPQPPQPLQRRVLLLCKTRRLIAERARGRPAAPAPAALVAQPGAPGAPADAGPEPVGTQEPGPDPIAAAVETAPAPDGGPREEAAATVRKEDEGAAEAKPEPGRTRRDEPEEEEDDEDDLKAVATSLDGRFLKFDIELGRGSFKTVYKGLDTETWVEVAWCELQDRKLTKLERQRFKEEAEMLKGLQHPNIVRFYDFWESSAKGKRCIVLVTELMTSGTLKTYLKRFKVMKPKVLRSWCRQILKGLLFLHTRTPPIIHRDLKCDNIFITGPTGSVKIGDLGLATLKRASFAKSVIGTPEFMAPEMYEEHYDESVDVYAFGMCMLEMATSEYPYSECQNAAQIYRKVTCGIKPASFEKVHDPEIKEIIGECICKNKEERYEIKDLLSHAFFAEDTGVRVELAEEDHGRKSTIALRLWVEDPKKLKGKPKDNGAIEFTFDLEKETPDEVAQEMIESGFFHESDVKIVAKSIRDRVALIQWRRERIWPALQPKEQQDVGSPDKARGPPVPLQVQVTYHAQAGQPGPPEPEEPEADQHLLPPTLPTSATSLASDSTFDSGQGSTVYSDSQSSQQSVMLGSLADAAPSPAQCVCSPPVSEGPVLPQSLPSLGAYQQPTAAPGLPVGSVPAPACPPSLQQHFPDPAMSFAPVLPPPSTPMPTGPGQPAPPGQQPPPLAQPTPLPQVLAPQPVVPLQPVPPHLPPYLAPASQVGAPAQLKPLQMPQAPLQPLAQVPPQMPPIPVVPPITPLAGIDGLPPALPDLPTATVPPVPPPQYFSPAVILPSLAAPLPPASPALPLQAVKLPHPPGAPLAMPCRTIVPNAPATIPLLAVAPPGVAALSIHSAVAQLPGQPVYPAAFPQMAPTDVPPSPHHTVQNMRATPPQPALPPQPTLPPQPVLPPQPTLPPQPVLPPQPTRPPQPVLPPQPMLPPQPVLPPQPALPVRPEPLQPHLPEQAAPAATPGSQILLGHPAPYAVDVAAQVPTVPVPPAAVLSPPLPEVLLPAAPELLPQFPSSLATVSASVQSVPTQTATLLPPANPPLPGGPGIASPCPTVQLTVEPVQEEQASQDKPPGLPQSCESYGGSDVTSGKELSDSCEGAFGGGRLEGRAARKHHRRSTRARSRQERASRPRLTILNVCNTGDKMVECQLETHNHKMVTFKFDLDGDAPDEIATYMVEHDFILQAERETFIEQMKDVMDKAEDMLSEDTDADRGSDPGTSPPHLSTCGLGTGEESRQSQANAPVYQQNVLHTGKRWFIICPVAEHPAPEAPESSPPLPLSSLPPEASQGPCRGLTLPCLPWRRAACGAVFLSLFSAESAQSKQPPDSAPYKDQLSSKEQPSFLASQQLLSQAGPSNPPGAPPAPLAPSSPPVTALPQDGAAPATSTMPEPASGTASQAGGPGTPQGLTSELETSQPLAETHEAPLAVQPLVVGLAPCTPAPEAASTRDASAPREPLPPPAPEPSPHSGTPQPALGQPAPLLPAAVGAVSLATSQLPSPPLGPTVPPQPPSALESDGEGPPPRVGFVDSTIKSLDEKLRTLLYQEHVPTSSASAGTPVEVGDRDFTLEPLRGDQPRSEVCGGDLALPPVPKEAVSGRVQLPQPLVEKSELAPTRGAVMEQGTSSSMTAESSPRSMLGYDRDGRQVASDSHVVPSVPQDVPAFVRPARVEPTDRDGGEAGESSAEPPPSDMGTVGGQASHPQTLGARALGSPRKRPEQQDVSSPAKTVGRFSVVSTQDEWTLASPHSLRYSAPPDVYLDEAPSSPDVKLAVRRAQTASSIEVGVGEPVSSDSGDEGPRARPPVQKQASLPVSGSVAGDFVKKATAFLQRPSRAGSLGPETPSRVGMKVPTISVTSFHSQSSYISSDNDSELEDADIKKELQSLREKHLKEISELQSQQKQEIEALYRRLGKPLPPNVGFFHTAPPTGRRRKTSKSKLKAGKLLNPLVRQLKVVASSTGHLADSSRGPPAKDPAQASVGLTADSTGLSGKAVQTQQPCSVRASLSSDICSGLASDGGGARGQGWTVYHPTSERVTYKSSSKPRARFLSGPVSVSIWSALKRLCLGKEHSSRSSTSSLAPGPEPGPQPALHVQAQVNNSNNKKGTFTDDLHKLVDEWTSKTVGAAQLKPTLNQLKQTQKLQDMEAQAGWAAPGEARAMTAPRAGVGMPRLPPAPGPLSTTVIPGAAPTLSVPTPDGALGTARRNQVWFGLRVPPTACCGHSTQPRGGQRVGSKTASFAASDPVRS
Death-associated protein kinase 3 (Homo sapiens), sequence (O43293 whole entry, looked up): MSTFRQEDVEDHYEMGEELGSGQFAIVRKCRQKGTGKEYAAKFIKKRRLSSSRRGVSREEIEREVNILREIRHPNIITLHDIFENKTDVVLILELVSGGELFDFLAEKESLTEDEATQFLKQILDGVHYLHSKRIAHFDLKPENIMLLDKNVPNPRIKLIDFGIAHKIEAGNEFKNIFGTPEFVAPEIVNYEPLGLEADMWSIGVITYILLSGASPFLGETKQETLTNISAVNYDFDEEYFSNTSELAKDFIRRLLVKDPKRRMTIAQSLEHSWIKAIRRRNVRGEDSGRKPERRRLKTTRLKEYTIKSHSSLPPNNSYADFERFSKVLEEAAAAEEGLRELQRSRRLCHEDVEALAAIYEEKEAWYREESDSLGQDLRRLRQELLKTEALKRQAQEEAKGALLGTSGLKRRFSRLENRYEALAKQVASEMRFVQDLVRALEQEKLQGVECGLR
Mitogen-activated protein kinase kinase kinase 8 (Homo sapiens), sequence (P41279 whole entry): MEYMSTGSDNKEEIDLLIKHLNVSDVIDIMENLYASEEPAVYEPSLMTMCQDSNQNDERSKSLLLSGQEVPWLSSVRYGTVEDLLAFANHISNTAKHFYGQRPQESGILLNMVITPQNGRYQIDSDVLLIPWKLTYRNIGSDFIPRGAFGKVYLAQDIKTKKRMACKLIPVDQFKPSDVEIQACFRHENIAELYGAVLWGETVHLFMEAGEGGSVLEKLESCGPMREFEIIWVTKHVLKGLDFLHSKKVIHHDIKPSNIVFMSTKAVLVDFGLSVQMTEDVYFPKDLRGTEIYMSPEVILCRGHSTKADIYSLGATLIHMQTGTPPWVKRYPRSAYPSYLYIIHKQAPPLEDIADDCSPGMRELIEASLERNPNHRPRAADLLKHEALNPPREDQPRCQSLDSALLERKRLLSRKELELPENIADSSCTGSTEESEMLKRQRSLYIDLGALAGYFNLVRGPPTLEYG
Mitogen-activated protein kinase kinase kinase 20 (Homo sapiens), sequence (Q9NYL2 2-800 limits assumed): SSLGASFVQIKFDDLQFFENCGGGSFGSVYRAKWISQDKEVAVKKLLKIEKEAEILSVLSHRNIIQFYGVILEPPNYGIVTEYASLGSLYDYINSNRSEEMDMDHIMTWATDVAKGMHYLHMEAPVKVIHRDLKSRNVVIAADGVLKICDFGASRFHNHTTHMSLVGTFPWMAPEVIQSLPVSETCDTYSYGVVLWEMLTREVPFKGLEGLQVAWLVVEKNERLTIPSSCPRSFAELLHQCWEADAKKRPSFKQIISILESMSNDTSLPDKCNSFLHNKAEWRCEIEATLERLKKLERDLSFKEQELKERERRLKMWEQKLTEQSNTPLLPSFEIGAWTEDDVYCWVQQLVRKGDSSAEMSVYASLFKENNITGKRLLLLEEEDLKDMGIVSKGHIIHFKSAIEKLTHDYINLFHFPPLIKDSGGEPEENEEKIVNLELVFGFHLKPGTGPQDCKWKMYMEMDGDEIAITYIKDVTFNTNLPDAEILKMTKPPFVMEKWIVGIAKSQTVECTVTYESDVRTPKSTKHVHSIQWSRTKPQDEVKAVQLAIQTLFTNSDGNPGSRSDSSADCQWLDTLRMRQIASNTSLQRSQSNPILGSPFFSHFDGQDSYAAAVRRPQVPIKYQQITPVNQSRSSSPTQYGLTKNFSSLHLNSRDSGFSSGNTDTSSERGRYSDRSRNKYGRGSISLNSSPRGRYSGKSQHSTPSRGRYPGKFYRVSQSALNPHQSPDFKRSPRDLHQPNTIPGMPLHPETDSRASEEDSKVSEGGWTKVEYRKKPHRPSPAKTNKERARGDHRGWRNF

As for `C[C@]1(O)C[C@@H](c2nc(-c3ccc4ccc(-c5ccccc5)nc4c3)c3c(N)nccn32)C1`, the inhibition (usually the drop in the measured response relative to a control, in per cent) in test [1] is 1.16%; in test [2] it was -2.52%; in test [3], -8.46%; in test [4], 6.02%; in test [5], -2.34%; in [6], -9.03%. The inhibition in test [7] is 1.65%; in [8], 2.03%; in test [9], -0.8%; in [10], 4.92%; in [11] it was -8.63%.
For the molecule `C[C@@]1(C(=O)Nc2ccc(F)nc2)CCCN1c1nc(Nc2cc(C3CC3)n[nH]2)c2cccn2n1`, the inhibition in [12] is -1.74%; in test [13], -3.44%; in test [14], 1.78%; in test [15], 6.56%.
